#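 1) Cells in 96-well plates. 2) Compound, 48 h, 5 concentrations. 3) Linear interpolation between surrounding doses. 4) Unreached endpoint = highest concentration. Here, GI50 denotes the concentration required for 50% inhibition of growth.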 Active and inactive are the calls of the source. Rule as the data show it: active = GI50 up to about 1.1 µM and inactive = higher.
# Columns and labels:
# Assay in all cases: NCI-60 cell line screen, 48 h
# NCI-H460 = system: NCI-H460
# DU-145 = system: DU-145
# NCI-H23 = system: NCI-H23
# SNB-19 = system: SNB-19
# Malme-3M = system: Malme-3M
# OVCAR-8 = system: OVCAR-8
# SF-295 = system: SF-295
# SN12C = system: SN12C
# UO-31 = system: UO-31
# NCI-H522 = system: NCI-H522
# A549 = system: A549
# HT-29 = system: HT-29
# KM12 = system: KM12
# 786-0 = system: 786-0
# RXF 393 = system: RXF 393
# MDA-MB-231 = system: MDA-MB-231
# SK-OV-3 = system: SK-OV-3
# K562 = system: K562
# SW-620 = system: SW-620
# HCT-15 = system: HCT-15
# MDA-MB-435 = system: MDA-MB-435
# HOP-92 = system: HOP-92
# SK-MEL-2 = system: SK-MEL-2
# OVCAR-4 = system: OVCAR-4
# MOLT-4 = system: MOLT-4
# COLO 205 = system: COLO 205
# SF-268 = system: SF-268
# PC-3 = system: PC-3
# NCI/ADR-RES = system: NCI/ADR-RES
# MCF7 = system: MCF7
# M14 = system: M14
# HCT-116 = system: HCT-116
# SK-MEL-28 = system: SK-MEL-28
# RPMI-8226 = system: RPMI-8226
# CAKI-1 = system: CAKI-1
# HOP-62 = system: HOP-62
# UACC-62 = system: UACC-62
# SF-539 = system: SF-539
# OVCAR-5 = system: OVCAR-5
# U-251 = system: U-251
# T47D = system: T47D
# MDA-N = system: MDA-N
# A498 = system: A498
# OVCAR-3 = system: OVCAR-3
# SK-MEL-5 = system: SK-MEL-5
compound,measurement,setting,value
O=C(O)[C@H](Cc1ccccc1)NCCN1CCC[C@H]1C(=O)O,GI50,NCI-H460,42.1 µM (inactive)
same,GI50,DU-145,> 100 µM (inactive)
same,GI50,NCI-H23,> 100 µM (inactive)
same,GI50,SNB-19,> 100 µM (inactive)
same,GI50,Malme-3M,49.8 µM (inactive)
same,GI50,OVCAR-8,> 100 µM (inactive)
same,GI50,SF-295,> 100 µM (inactive)
same,GI50,SN12C,> 100 µM (inactive)
same,GI50,UO-31,32.4 µM (inactive)
same,GI50,NCI-H522,> 100 µM (inactive)
same,GI50,A549,> 100 µM (inactive)
same,GI50,HT-29,26.2 µM (inactive)
same,GI50,KM12,> 100 µM (inactive)
same,GI50,786-0,> 100 µM (inactive)
same,GI50,RXF 393,> 100 µM (inactive)
same,GI50,MDA-MB-231,> 100 µM (inactive)
same,GI50,SK-OV-3,> 100 µM (inactive)
same,GI50,K562,1.53 µM (inactive)
same,GI50,SW-620,80.4 µM (inactive)
same,GI50,HCT-15,22.2 µM
same,GI50,MDA-MB-435,> 100 µM (inactive)
same,GI50,HOP-92,1.91 µM (inactive)
same,GI50,SK-MEL-2,> 100 µM (inactive)
same,GI50,OVCAR-4,3.74 µM (inactive)
same,GI50,MOLT-4,99.8 µM (inactive)
same,GI50,COLO 205,37.6 µM (inactive)
same,GI50,SF-268,> 100 µM (inactive)
same,GI50,PC-3,> 100 µM (inactive)
same,GI50,NCI/ADR-RES,> 100 µM (inactive)
same,GI50,MCF7,> 100 µM (inactive)
same,GI50,M14,> 100 µM (inactive)
same,GI50,HCT-116,> 100 µM (inactive)
same,GI50,SK-MEL-28,> 100 µM (inactive)
same,GI50,RPMI-8226,> 100 µM (inactive)
same,GI50,CAKI-1,> 100 µM (inactive)
same,GI50,HOP-62,> 100 µM (inactive)
same,GI50,UACC-62,70.8 µM (inactive)
same,GI50,SF-539,> 100 µM (inactive)
same,GI50,OVCAR-5,> 100 µM (inactive)
same,GI50,U-251,> 100 µM (inactive)
same,GI50,T47D,> 100 µM (inactive)
same,GI50,MDA-N,> 100 µM (inactive)
same,GI50,A498,42.6 µM (inactive)
same,GI50,OVCAR-3,> 100 µM (inactive)
same,GI50,SK-MEL-5,> 100 µM (inactive)

# From ChEMBL document CHEMBL1201862, “PubChem BioAssay data set” (2004)
